{
  "source": "patent US10653651B2",
  "about": "“Kit for treating cancer with low molecular weight components of aurin tricarboxylic acid complex” (Aurin Biotech Inc., priority 2014, dated 2020)",
  "format_in_all_cases": "cell-based, human",
  "key": {"VEGF [1]": {"test_system": "VEGF", "test": "Western blot of VEGF expression and release by U251 cells", "conditions": "10 μM, 1 day; for expression of vascular endothelial growth factor (VEGF) in U251 cells: cell extract; for release of VEGF into the extracellular milieu by U251 cells: supernatant", "experimental": "Experiment 2 was designed to determine the effect of ATA, AQA, and AHA on the expression and release of Factor H and VEGF by U251 cells. Cells were grown in DMEM for 24 h at 37° C., after which ATA, AQA, or AHA was added to the medium at a final concentration of 10 μM and incubation carried out for a further 24 h. The medium was drawn off, and the cells washed with PBS. Lysis buffer was then added to the cells. Forty microliters of the cell lysate, or the supernatant media, were loaded onto 12% polyacrylamide gels and separated under non-reducing conditions (70 V, 3-6 h). Following SDS-PAGE, proteins were transferred to a PVDF membrane (Bio-RadTM, CA) at 30 mA for 2 h. The membranes were blocked with 5% milk in PBS-T (80 mM Na2HPO4, 20 mM NaH2PO4, 100 mM NaCl, 0.1% Tween 20, pH 7.4) for 1 h, and incubated overnight at 4° C. with primary antibodies for Factor H (CytotechTM, goat 1/1000) and for VEGF (MilliporeTM, rabbit 1/2000). The membranes were then washed 3 times with PBST. They were then treated with an appropriate horseradish peroxidase (HRP)-conjugated secondary antibody for 3 h at room temperature. The secondary antibodies were anti-rabbit IgG (P0448, DAKOTM, Mississauga, Ontario, CA, 1/2,000) and anti-goat IgG (A[…], MilliporeTM, Billerica, Ma, 1/3,000). The bands were visualized with an enhanced chemiluminescence system and exposure to photographic film (Hyperfilm ECLTM, AmershamTM Pharmacia Biotech, Little Chalfont, UK). For reprobing of membranes with an alternative antibody, the membranes were treated with 10 mL of stripping buffer (3 mL of 1 M Tris-HCl pH 6.7, 10 mL of 10% SDS, 347 μL of 14 M mercaptoethanol, and 36.5 mL deionized water) at 60° C. for 1 h. The membrane was then placed on a shaking incubator for 30 min to clear it of all bound antibodies. The stripped membrane was then treated with a different primary antibody as previously described."}, "U251 cells": {"test_system": "U251 cells", "test": "DNA laddering (apoptosis) in U251 cells", "conditions": "10 μM, 1 day, agarose gel", "experimental": "For determination of DNA laddering, which is indicative of DNA disintegration, cells were precipitated by centrifugation, washed, and lysed with […] Tris-HCl, 5 mM EDTA, and 3% Triton-X-100. The lysates were incubated at 37° C. for 1 h and then centrifuged at 12,000g for 10 min. They were treated with phenol/chloroform/isoamylalcohol (25:24:1) and chloroform/isoamylalcohol (24:1) twice each, and precipitated with 0.6 volume isopropyl alcohol and 0.1 volume 3 M sodium actate at −20° C. for 30 min. The precipitates were centrifuged at 12,000 g for 20 min, washed with 70% ethanol and dissolved with TE buffer containing 2 μg/mL bovine RNase. DNAs were electrophoresed in 10 μg/mL ethidium bromide containing 2% w/v agarose gel."}, "VEGF [2]": {"test_system": "VEGF", "test": "Western blot of VEGF expression and release by A549 cells", "conditions": "10 μM, 1 day; for expression of vascular endothelial growth factor (VEGF) in A549 cells: cell extract; for release of VEGF into the extracellular milieu by A549 cells: supernatant", "experimental": "Experiment 2 was designed to determine the effect of ATA, AQA, and AHA on the expression and release of Factor H and VEGF by U251 cells. Cells were grown in DMEM for 24 h at 37° C., after which ATA, AQA, or AHA was added to the medium at a final concentration of 10 μM and incubation carried out for a further 24 h. The medium was drawn off, and the cells washed with PBS. Lysis buffer was then added to the cells. Forty microliters of the cell lysate, or the supernatant media, were loaded onto 12% polyacrylamide gels and separated under non-reducing conditions (70 V, 3-6 h). Following SDS-PAGE, proteins were transferred to a PVDF membrane (Bio-Rad™, CA) at 30 mA for 2 h. The membranes were blocked with 5% milk in PBS-T (80 mM Na2HPO4, 20 mM NaH2PO4, 100 mM NaCl, 0.1% Tween 20, pH 7.4) for 1 h, and incubated overnight at 4° C. with primary antibodies for Factor H (Cytotech™, goat 1/1000) and for VEGF (Millipore™, rabbit 1/2000). The membranes were then washed 3 times with PBST. They were then treated with an appropriate horseradish peroxidase (HRP)-conjugated secondary antibody for 3 h at room temperature. The secondary antibodies were anti-rabbit IgG (P0448, DAKO™, Mississauga, Ontario, CA, 1/2,000) and anti-goat IgG (AP106P, Millipore™, Billerica, Ma, 1/3,000). The bands were visualized with an enhanced chemiluminescence system and exposure to photographic film (Hyperfilm ECL™, Amersham™ Pharmacia Biotech, Little Chalfont, UK). For reprobing of membranes with an alternative antibody, the membranes were treated with 10 mL of stripping buffer (3 mL of 1 M Tris-HCl pH 6.7, 10 mL of 10% SDS, 347 μL of 14 M mercaptoethanol, and 36.5 mL deionized water) at 60° C. for 1 h. The membrane was then placed on a shaking incubator for 30 min to clear it of all bound antibodies. The stripped membrane was then treated with a different primary antibody as previously described.\nExperiment 6 was designed to determine the effect of ATA, AQA, and AHA on the expression and release of Factor H and VEGF by BxPC-3 cells.\nExperiment 10 was designed to determine the effect of ATA, AQA, and AHA on the expression and release of Factor H and VEGF by A549 cells. The protocol was identical to that used in Experiment 6 except A549 cells were used."}},
  "data": [
    {"substance": "aurin hexacarboxylic acid [AHA]", "values": [
      {"measurement": "expression of vascular endothelial growth factor (VEGF) in U251 cells", "setting": "VEGF [1]", "value": "reducing expression"},
      {"measurement": "release of VEGF into the extracellular milieu by U251 cells", "setting": "VEGF [1]", "value": "reducing release"},
      {"measurement": "DNA fragmentation (180 bp laddering) in U251 cells", "setting": "U251 cells", "value": "induced DNA fragmentation"},
      {"measurement": "expression of vascular endothelial growth factor (VEGF) in A549 cells", "setting": "VEGF [2]", "value": "reduced expression"},
      {"measurement": "release of VEGF into the extracellular milieu by A549 cells", "setting": "VEGF [2]", "value": "reducing release"}
    ]},
    {"substance": "aurin quadracarboxylic acid [AQA]", "values": [
      {"measurement": "expression of vascular endothelial growth factor (VEGF) in U251 cells", "setting": "VEGF [1]", "value": "reducing expression"},
      {"measurement": "release of VEGF into the extracellular milieu by U251 cells", "setting": "VEGF [1]", "value": "reducing release"},
      {"measurement": "DNA fragmentation (180 bp laddering) in U251 cells", "setting": "U251 cells", "value": "induced DNA fragmentation"},
      {"measurement": "expression of vascular endothelial growth factor (VEGF) in A549 cells", "setting": "VEGF [2]", "value": "reduced expression"},
      {"measurement": "release of VEGF into the extracellular milieu by A549 cells", "setting": "VEGF [2]", "value": "reducing release"}
    ]}
  ]
}
